The text below walks through data of PMC4679366 (European journal of medicinal chemistry, 2014).

Assay [1] deals with P. falciparum 3D7. Description: Asexual stage in vitro antimalarial assay, [3H]-hypoxanthine incorporation. In kind it is cell-based. The conditions noted are these: Plasmodium falciparum, 3D7, read-out: Pf 3D7 IC50.
In assay [2] the test system is P. falciparum NF54 late stage gametocytes (IV–V). In words: Late stage P. falciparum. In kind it is cell-based. To be noted: Plasmodium falciparum, NF54, HN12, 72 h, read-out: Pf LSG IC50.
A further assay has as its system P. falciparum histone H4. In words: Histone hyperacetylation assay. In kind it is cell-based, Plasmodium falciparum. The conditions noted are these: 500 nM, 3 h, trophozoite-stage 3D7, Western blot anti-acetyl H4. (In western blotting, separated proteins are transferred to a membrane and probed.)
The subject of another assay is P. falciparum. To be noted: read-out: P. falciparum IC50; cited from earlier work.
For a further assay, the system named is human HDAC4. To be noted: cited from earlier work.
For a further assay, the system named is human HDAC5. The conditions noted are these: cited from earlier work.
Assay [3] has as its system P. berghei exo-erythrocytic forms (EEF). Description: Pb liver stage assay. In kind it is cell-based. To be noted: Plasmodium berghei, 48 h, read-out: Pb EEF IC50, P. berghei exo-erythrocytic forms in HepG2-A16-CD81EGFP cells, 48 h.
The test system of another assay is P. falciparum histone H3. Description: Histone hyperacetylation assay. In kind it is cell-based, Plasmodium falciparum. The conditions noted are these: 500 nM, 3 h, trophozoite-stage 3D7, Western blot anti-acetyl H3.
Assay [4] relates to P. falciparum 3D7. To be noted: read-out: Pf 3D7 IC50, asexual blood stages; cited from earlier work.
In the next assay the test system is HepG2 liver cells. Description: HepG2 toxicity assay. In kind it is cell-based. To be noted: Homo sapiens, HepG2, read-out: HepG2 IC50.

pIC50: −log10 of the molar value. Where two headings read alike, the source gives them in different places. Some results are limits rather than exact numbers.

In the case of `CCN(CC)CCCC(C)Nc1ccnc2cc(Cl)ccc12` (stereo not drawn) [Chloroquine], the pIC50 is 8.00 in the assay with P. falciparum 3D7 [1] and below 3.92 in [2].

Take `CC(/C=C/C(=O)NO)=C\[C@@H](C)C(=O)c1ccc(N(C)C)cc1` [TSA, Trichostatin A]: in the assay on P. falciparum histone H4, the “hyperacetylation of P. falciparum histone H4” value was “caused hyperacetylation”. Besides, the pIC50 in the assay on P. falciparum is 7.96 to 8.10. In the case of `Cc1cc(C)cc(C(=O)NOCCCCCC(=O)NO)c1` [Compound 1a], in the assay with human HDAC4, the “human HDAC4 IC50” value is “low nanomolar”. For the same compound, in the assay on human HDAC5, the “human HDAC5 IC50” value is given as “low nanomolar”. Turning to `CCCCCCOc1ccc(C(=O)NOCCCCCC(=O)NO)cc1` [Compound 1s, 4-(Hexyloxy)-N-((6-(hydroxyamino)-6-oxohexyl)oxy)benzamide], the pIC50 in assay [3] was below 5.30. Consider `CCCCCOc1ccc(C(=O)NOCCCCCC(=O)NO)cc1` [Compound 1n, N-((6-(Hydroxyamino)-6-oxohexyl)oxy)-4-(pentyloxy)benzamide], for which, in assay [3], the pIC50 was below 5.30. Take `Cc1ccc(C(=O)NOCCCCCC(=O)NO)cc1C` [Compound 1b]: the “hyperacetylation of P. falciparum histone H3” value in the assay on P. falciparum histone H3 is “to a lesser extent”. On to `CCCOc1ccc(C(=O)NOCCCCCC(=O)NO)cc1` [Compound 1m, N-((6-(Hydroxyamino)-6-oxohexyl)oxy)-4-propoxybenzamide], for which the pIC50 in [3] is below 5.30.

As to `CCCCc1nc2cc(/C=C/C(=O)NO)ccc2n1CCN(CC)CC` [SB939], the pIC50 with P. falciparum was 6.82 to 7.10. On to `O=C(CCCCCCC(=O)Nc1ccccc1)NO` [SAHA, suberoylanilide hydroxamic acid], for which the pIC50 with P. falciparum 3D7 [4] is 6.89. Take `O=C1C(O)=C([C@H]2CC[C@H](c3ccc(Cl)cc3)CC2)C(=O)c2ccccc21` [Atovaquone]: in the assay on HepG2 liver cells, the pIC50 is below 5.00.

As for `Nc1cccc(-c2csc(NC(=O)CCCCCCC(=O)NO)n2)c1` [WR301801 (YC-II-88)], the negative-log IC50 (pIC50) in the assay on P. falciparum is 8.74 to 9.22.

`O=C(/C=C/c1ccccc1)N[C@@H](CCCCCC(=O)NO)C(=O)Nc1cccc2cccnc12` [Compound 2-ASA-9]: in the assay with P. falciparum, the pIC50 was 7.41 to 7.82.

As usually defined, the pIC50 is −log10 of the IC50, conventionally taken in molar units.
